Values joined by “and” are separate entries in the source; they are usually repeats but may differ in a detail not shown here. Identical values can stand only once.
Tests used:
[1] = instrument: DT, single field
[2] = instrument: DT, single field, calibrated with Agilent tune mix (Agilent)
[3] = instrument: TW, calibrated with phosphatidylcholines (ESI+) and phosphatidylethanolamines (ESI-)
[4] = instrument: TW, calibrated with phosphatidylcholines (ESI+) and phosphatidylethanolamines (ESI-); remark: listed apart in the source
[5] = [M+Na]+; instrument: DT; stepped-field

collision cross section (N2) ([1]; [M+NH4]+)	collision cross section (N2) ([2]; [M+NH4]+)	collision cross section (N2) ([1]; [M+Na]+)	Structure (SMILES)	other results
265.29 Å² and 266.85 Å²			CC/C=C\C/C=C\C/C=C\C/C=C\C/C=C\CCCCCC(=O)O[C@@H](CO)COC(=O)CCCCCCCCCCCC [DG(35:5)]	
			CCCCCCCCCCCCCCCC(=O)OC[C@H](COP(=O)([O-])OCC[N+](C)(C)C)OC(=O)CCCCCCCCCCCCC [PC(30:0)]	collision cross section (N2) ([1]; [M+H]+): 276.5 Å² and 277.83 Å²; collision cross section (N2) ([2]; [M+H]+): 276.8 Å²
			CCCCCCCCCCCCCCC(=O)O[C@H](COC(=O)CCCCCCCCCCCC)COP(=O)(O)OC[C@@H](O)CO [PG(28:0)]	collision cross section (N2) ([3]; [M-H]-): 253.1 Å²
			CCCCCCC/C=C\CCCCCCCC(=O)O[C@H](COC(=O)CCCCCCCCCCCC)COP(=O)(O)OC[C@@H](O)CO [PG(30:1)]	collision cross section (N2) ([3]; [M-H]-): 257.1 Å²
			CCCCCC/C=C\CCCCCCCC(=O)O[C@H](COC(=O)CCCCCCCCCCCCCC)COP(=O)(O)OC[C@@H](O)CO [PG(31:1)]	collision cross section (N2) ([3]; [M-H]-): 260.2 Å²
			CCCCCCCCCCCCCCCCCCCCC(=O)OC[C@H](COP(=O)(O)OC[C@@H](O)CO)OC(=O)CCCCCCCCCCC [PG(33:0)]	collision cross section (N2) ([3]; [M-H]-): 268.6 Å²
			CCCCC/C=C\CCCCCCCC(=O)OC[C@H](COP(=O)(O)OC[C@@H](O)CO)OC(=O)CCCCCCC/C=C\CCCCCCCC [PG(33:2)]	collision cross section (N2) ([3]; [M-H]-): 264.5 Å²
	284.9 Å²		CCCCC/C=C\C/C=C\CCCCCCCCCCCC(=O)O[C@H](COC(=O)CCCCCCCCCCC)COP(=O)(O)OC[C@@H](O)CO [PG(34:2)]	collision cross section (N2) ([3]; [M-H]-): 268.1 Å²; collision cross section (N2) ([4]; [M+Na]+): 278.2 Å²; collision cross section (N2) ([4]; [M-H]-): 267.4 Å²; collision cross section (N2) ([2]; [M+H]+): 283.3 Å²; collision cross section (N2) ([2]; [M-H]-): 268.7 Å²
			CCC/C=C\C/C=C\CCCCCCCC(=O)O[C@H](CO/C=C\CCCCCCCCCCCCC)COP(=O)(O)OC[C@@H](O)CO [PG(p31:2)]	collision cross section (N2) ([3]; [M-H]-): 256.8 Å²
			CCCCCC/C=C\CCCCCCCC(=O)O[C@H](CO/C=C\CCCCCCCCCCCCCCCC)COP(=O)(O)OC[C@@H](O)CO [PG(p34:1)]	collision cross section (N2) ([3]; [M-H]-): 268.6 Å²
			CCCCC/C=C\C/C=C\CCCCCCCC(=O)O[C@H](CO/C=C\CCCCCCCCCCCCCC)COP(=O)(O)OC[C@@H](O)CO [PG(p34:2)]	collision cross section (N2) ([3]; [M-H]-): 266.6 Å²
			CCCCCCCCCCCCCCCC(=O)OC[C@H](COP(=O)(O)O[C@H]1C(O)C(O)C(O)[C@@H](O)C1O)OC(=O)CCCCCCCCCCCCCCC (stereo partly specified) [PI(16:0/16:0)]	collision cross section (N2) ([3]; [M+Na]+): 289.5 Å²; collision cross section (N2) ([3]; [M-H]-): 280.9 Å²
			CCCCCCCCCCCCC=CC[C@@H](O)[C@H](COP(=O)([O-])OCC[N+](C)(C)C)NC(=O)CCCCCCCCCCCCC [SM(32:1)]	collision cross section (N2) ([1]; [M+H]+): 275.46 Å²; collision cross section (N2) ([2]; [M+H]+): 276.6 Å²
			CCCCCCCCCCCCC=CC[C@@H](O)[C@H](COP(=O)([O-])OCC[N+](C)(C)C)NC(=O)CCCCCCCCCCCCCCC [SM(34:1)]	collision cross section (N2) ([1]; [M+H]+): 281.13 Å²; collision cross section (N2) [5]: 285.1 Å²; collision cross section (N2) ([2]; [M+HCOO]-): 280.9 Å²; collision cross section (N2) ([2]; [M+H]+): 283.9 Å²
296.47 Å² and 298.81 Å² and 298.68 Å²		295.37 Å² and 297.74 Å²	CCCCCCCC/C=C\CCCCCCCC(=O)OC[C@@H](COC(=O)CCCCCCCCCCCC)OC(=O)CCCCCCCCCCCC [TG(44:1)]	
		302.69 Å² and 303.56 Å²	CCCCCCCCCCCCCCCCCCCCCC(=O)OC[C@@H](COC(=O)CCCCCCCCCCC)OC(=O)CCCCCCCCCCC [TG(46:0)]	
297.58 Å² and 299.43 Å²	297.1 Å²	297 Å² and 298.89 Å²	CCCCC/C=C\C/C=C\C/C=C\CCCCCCCCC(=O)OC[C@@H](COC(=O)CCCCCCCCCCC)OC(=O)CCCCCCCCCCC [TG(46:3)]	
304.89 Å² and 307.09 Å²	304.8 Å²	304.27 Å² and 306.32 Å²	CCCCC/C=C\C/C=C\C/C=C\CCCCCCCCC(=O)OC[C@@H](COC(=O)CCCCCCCCCCCC)OC(=O)CCCCCCCCCCCC [TG(48:3)]	
	313 Å²	311.82 Å² and 313.77 Å²	CCCCCCCCC/C=C\CCCCCCCC(=O)OC[C@@H](COC(=O)CCCCCCCCCCCCCC)OC(=O)CCCCCCCCCCCCCC [TG(49:1)]	
	310.5 Å²	309.35 Å² and 311.09 Å²	CCCC/C=C\CCCCCCCC(=O)OC[C@H](COC(=O)CCCCCCCCCCCCCCCCCCCC)OC(=O)CCCCCCC/C=C\CCCC [TG(49:2)]	
307.56 Å²			CCCC/C=C\C/C=C\CCCCCCCC(=O)O[C@@H](COC(=O)CCCCCCCCC/C=C\C/C=C\CCCCC)COC(=O)CCCCCCCCCCC [TG(49:4)]	

collision cross section (N2) ([1]; [M+NH4]+)	collision cross section (N2) ([2]; [M+NH4]+)	collision cross section (N2) ([1]; [M+Na]+)	Structure (SMILES)	other results
		316.28 Å²	CCCCCCCCCCCCCCCCCCC(=O)OC[C@@H](COC(=O)CCCCCCCCCCC)OC(=O)CCCCCCCCCCCCCCCCCC [TG(50:0)]	
	309.5 Å²	308.43 Å² and 310.33 Å² and 312.33 Å²	CCCCC/C=C\C/C=C\C/C=C\C/C=C\CCCCCC(=O)OC[C@@H](COC(=O)CCCCCCCCCCCCC)OC(=O)CCCCCCCCCCCCC [TG(50:4)]	
		308.34 Å² and 309.51 Å²	CCCCC/C=C\C/C=C\C/C=C\C/C=C\CCCC(=O)OC[C@@H](COC(=O)CCCCCCCCCCC)OC(=O)CCCCCCC/C=C\CCCCCCCC [TG(50:5)]	
312.57 Å²			CCCCC/C=C\C/C=C\CCCCCCCC(=O)OC[C@@H](COC(=O)CCCCCCC/C=C\CCCCC)OC(=O)CCCCCCC/C=C\C/C=C\CCCCC [TG(51:5)]	
		319.25 Å² and 320.86 Å² and 321.71 Å²	CCCCCCCC/C=C\CCCCCCCCCC(=O)OC[C@@H](COC(=O)CCCCCCCCCCC)OC(=O)CCCCCCCCC/C=C\CCCCCCCC [TG(52:2)]	
	317.6 Å²	314.5 Å² and 316.78 Å²	CCCCC/C=C\C/C=C\C/C=C\C/C=C\CCCC(=O)OC[C@@H](COC(=O)CCCCCCCCCCCCC)OC(=O)CCCCCCCCCCCCCCCCC [TG(52:4)]	
318.08 Å² and 320.09 Å² and 324.43 Å²	319.5 Å²	319.39 Å²	CCCCC/C=C\C/C=C\C/C=C\C/C=C\CCCC(=O)OC[C@@H](COC(=O)CCCCCCCCCCCCCC)OC(=O)CCCCCCCCCCCCCCCCC [TG(53:4)]	
331.43 Å²			CCCCCCCCCCCCCCCCCCCCC(=O)OC[C@@H](COC(=O)CCCCCCCCCCC)OC(=O)CCCCCCCCCCCCCCCCCCCC [TG(54:0)]	
321.8 Å² and 324.34 Å² and 326.13 Å²		320.63 Å² and 322.94 Å²	CCCCC/C=C\C/C=C\C/C=C\C/C=C\CCCC(=O)OC[C@@H](COC(=O)CCCCCCCCCCCCC)OC(=O)CCCCCCCCCCCCCCCCCCC [TG(54:4)]	
317.23 Å² and 320 Å²	318 Å²	316.19 Å²	CC/C=C\C/C=C\C/C=C\C/C=C\CCCCC(=O)OC[C@@H](COC(=O)CCCCCCCCCCCCCCCCC)OC(=O)CCCC/C=C\C/C=C\C/C=C\CCCCC [TG(54:7)]	
		327.06 Å² and 327.86 Å²	CCCC/C=C\C/C=C\CCCCCCCC(=O)OC[C@H](COC(=O)CCCCCCCCC/C=C\CCCCCCCCCC)OC(=O)CCCCCCC/C=C\C/C=C\CCCC [TG(56:5)]	
	328.3 Å²	326.57 Å² and 325 Å²	CC/C=C\C/C=C\C/C=C\C/C=C\C/C=C\CCCCCC(=O)OC[C@@H](COC(=O)CCCCCCC/C=C\CCCCC)OC(=O)CCCCCCCCCCCCCCCCCC [TG(56:6)]	
338.57 Å² and 340.8 Å²	334.6 Å²		CCCCCCCCCC/C=C\CCCCCCCCCC(=O)OC[C@@H](COC(=O)CCCCCCCCCCCC)OC(=O)CCCCCCCCC/C=C\CCCCCCCCCC [TG(57:2)]	
336.68 Å² and 339.26 Å²	332.9 Å²		CCCCC/C=C\C/C=C\CCCCCCCCCCCC(=O)OC[C@@H](COC(=O)CCCCCCCCCCCC)OC(=O)CCCCCCCCC/C=C\CCCCCCCCCC [TG(57:3)]	
334.57 Å² and 337.31 Å²			CCCCC/C=C\C/C=C\C/C=C\CCCCC(=O)O[C@H](COC(=O)CCCCCCC/C=C\CCCCCCC)COC(=O)CCCCCCCCCCCCCCCCCCCCC [TG(57:4)]	
341.17 Å² and 343.91 Å² and 338.53 Å²	337.8 Å²		CCCCCCCCCC/C=C\CCCCCCCCCC(=O)OC[C@@H](COC(=O)CCCCCCCCCCCCC)OC(=O)CCCCCCCCC/C=C\CCCCCCCCCC [TG(58:2)]	
333.74 Å²			CC/C=C\C/C=C\C/C=C\C/C=C\C/C=C\C/C=C\CCC(=O)OC[C@@H](COC(=O)CCCCCCCCCCCCCCC)OC(=O)CCCCCCCCCCCCCCCCCCC [TG(58:6)]	
346.03 Å²			CCCCCCCCC/C=C\CCCCCCCC(=O)OC[C@H](COC(=O)CCCCCCCCCCCCCCCCCCCCC)OC(=O)CCCCCCC/C=C\CCCCCCCCC [TG(60:2)]	
344.73 Å² and 347.66 Å² and 343.58 Å²			CCCCCC/C=C\CCCCCCCC(=O)OC[C@H](COC(=O)CCCCCCCCC/C=C\CCCCCCCCCC)OC(=O)CCCCCCCCC/C=C\CCCCCCCCCC [TG(60:3)]	
342.69 Å² and 347.03 Å²	340.7 Å²		CCCCC/C=C\C/C=C\CCCCCCCCCC(=O)O[C@H](COC(=O)CCCCCCC/C=C\CCCCCCCC)COC(=O)CCCCCCCCCCC/C=C\CCCCCCCC [TG(60:4)]	

— the C3SDB collision cross section collection
